Several values for one entry are separate records, joined by “and”; a condition that tells them apart may be missing. Equal values may be shown once.
How the values were obtained:
SUDHL-4 xenograft = SUDHL-4 xenograft efficacy and survival; type: in vivo, C.B-17 SCID mouse; conditions: Rituxan (Rtx) 10 mg/kg
Protocol: (§1) Female C.B.−17 SCID mice were purchased from Charles River Laboratories. Mice were 5–8 weeks old at the time of tumour implantation. All xenograft studies were conducted at our Association for the Assessment and Accreditation of Laboratory Animal Care accredited facility in Waltham, MA in accordance with ethical regulations described in the guidelines established by the internal Institutional Animal Care and Use Committee. The dendrimer conjugates were formulated in citrate/phosphate buffer pH 5.0, diluted 1:10 with 5% glucose containing 1% w/v Kolliphor HS15, and AZD4320 was formulated in 30% HP-β-CD and dosed as a weekly intravenous (IV) administration at a volume of 5 ml/kg at the indicated doses. Five million RS4;11, five million SUDHL-4 or five million OCI-LY-10 cells were injected subcutaneously in the right flank of mice in a volume of 0.1 ml. Tumour volumes (measured by caliper), animal body weight, and tumor condition were recorded twice weekly for the duration of the study. The tumour volume was calculated (taking length to be the longest diameter across the tumour and width to be the corresponding perpendicular diameter) using the formula: length (mm) x width (mm)^2/0.52. For efficacy studies, mice were randomized based on tumour volumes using stratified sampling and enrolled into control and treatment groups. Tumour growth inhibition from the start of treatment was quantified by measuring the difference in tumour volume between control and treated groups. Survival analysis was evaluated using Mantel-Cox test. Tumours were also taken for bioanalysis.

OCI-LY10 xenograft = OCI-LY10 xenograft efficacy and survival; type: in vivo, C.B-17 SCID mouse; design: OCI-LY10 xenograft efficacy, individual animals: unit not given here; conditions: for OCI-LY10 xenograft efficacy, individual animals: Acalabrutinib 12.5mpk BID
Protocol: as §1

Molecule | SUDHL-4 xenograft efficacy, Geo Mean (SUDHL-4 xenograft; day 1) | SUDHL-4 xenograft efficacy, Geo Mean (SUDHL-4 xenograft; day 5) | SUDHL-4 xenograft efficacy, Geo Mean (SUDHL-4 xenograft; day 9) | SUDHL-4 xenograft efficacy, Geo Mean (SUDHL-4 xenograft; day 12) | SUDHL-4 xenograft efficacy, Geo Mean (SUDHL-4 xenograft; day 16) | SUDHL-4 xenograft efficacy, Geo Mean (SUDHL-4 xenograft; day 19) | SUDHL-4 xenograft efficacy, Geo Mean (SUDHL-4 xenograft; day 23) | SUDHL-4 xenograft efficacy, Geo Mean (SUDHL-4 xenograft; day 26) | SUDHL-4 xenograft efficacy, Geo Mean (SUDHL-4 xenograft; day 29) | SUDHL-4 xenograft efficacy, Geo Mean (SUDHL-4 xenograft; day 32) | OCI-LY10 xenograft efficacy, individual animals (OCI-LY10 xenograft; day 18) | OCI-LY10 xenograft efficacy, individual animals (OCI-LY10 xenograft; day 21) | OCI-LY10 xenograft efficacy, individual animals (OCI-LY10 xenograft; day 25) | OCI-LY10 xenograft efficacy, individual animals (OCI-LY10 xenograft; day 28) | OCI-LY10 xenograft efficacy, individual animals (OCI-LY10 xenograft; day 32) | OCI-LY10 xenograft efficacy, individual animals (OCI-LY10 xenograft; day 35) | OCI-LY10 xenograft efficacy, individual animals (OCI-LY10 xenograft; day 39) | OCI-LY10 xenograft efficacy, individual animals (OCI-LY10 xenograft; day 42) | monotherapy activity (OCI-LY10 xenograft; OCI-LY10 DLBCL model)
Rituxan (Rtx) | 207.17 | 194.343 | 229.272 | 236.829 | 277.244 | 341.784 | 461.782 | 534.569 | 692.979 | 702.104 |  |  |  |  |  |  |  |  | 
CC#CC(=O)N1CCC[C@H]1c1nc(-c2ccc(C(=O)Nc3ccccn3)cc2)c2c(N)nccn12 [acalabrutinib, reference compound] |  |  |  |  |  |  |  |  |  |  | 127 and 164 and 248 and 101 and 210 and 188 and 174 and 141 | 221 and 332 and 538 and 104 and 333 and 303 and 198 and 259 | 299 and 256 and 495 and 88 and 284 and 527 and 334 and 162 | 232 and 311 and 519 and 141 and 436 and 334 and 361 and 191 | 363 and 375 and 663 and 150 and 384 and 401 and 347 and 391 | 402 and 443 and 532 and 209 and 471 and 429 and 383 and 277 | 393 and 553 and 891 and 198 and 472 and 366 and 578 and 547 | 405 and 474 and 589 and 106 and 385 and 656 and 416 and 224 | neither agent showed any demonstrable monotherapy activity

Reference: article PMC7835349 (Communications Biology, 2021)
